Read-outs that look alike come from different tables or passages of the source.
Legend:
CYP2D6 [1] = assay: CYP2D6 inhibition of virtual hits already reported in the literature; conditions: authors' classification of the literature value, Supplementary Table S2
Source text: the hits according to non-available CYP2D6 inhibition data, plant origin and availability. The

CYP2D6 [2] = conditions: Supplementary Table S2, supplementary reference list, cited from earlier work; for IC50: read-out: Inhibitory potency IC50
[3] = test system: P450-Glo detection reaction (unspecific esterase and modified firefly-luciferase); assay: P450-Glo detection reaction control (luciferin-EGE, esterase, luciferase, test compound, no CYP2D6); conditions: for P450-Glo Detection Reaction MEAN Diff. (inhibition of the detection reaction) / P450-Glo Detection Reaction MEAN (total luminescence): 50 µM test compound; for P450-Glo Detection Reaction MEAN Diff. (inhibition of the detection reaction): difference to DMSO 1% control; for P450-Glo Detection Reaction MEAN (total luminescence): no CYP2D6, DMSO control = 100; for p < 0.05 (significant inhibition of the P450-Glo detection reaction): 50 µM, one-way ANOVA, Dunnett's test vs DMSO control
Source text: This detection-reagent consists of i) a detergent that stops the CYP2D6 enzyme reaction, ii) an unspecific esterase that continuously releases luciferin and iii) a modified firefly-luciferase, thus a stable luminogenic signal is generated, which can be quantified by a luminometer (Fig. 1). The detection reaction is incorporated in the P450-Glo CYP2D6 inhibition assay. However, we implemented additional controls for unspecific interactions of the test compounds with the detection reaction. For this purpose, the previously established luminescence quenching control reaction reported by Modarai et al.[9] was adapted to our requirements with modifications for the use of larger sample volumes. In addition, Modarai et al. converted ME-luciferin-EGE to luciferin in the absence of a test compound and then evaluated the inhibition of the luciferase reaction.We conducted the control step by using pure luciferin-EGE, esterase, luciferase and a test compound in the absence of CYP2D6 (Supplementary Table S4).
The quantification of the P450-Glo detection reaction was performed by subtracting the background values prior to calculating the percentage of total luminescence (% TL) based on the total luminescence obtained from the solvent control (set to 100%).
We then added 12.5 µl 4× reaction mixture (5 µl 1.5 mM luciferin-EGE stock solution, 500 µl 1 M KPO4 buffer and 745 µl luciferase free water) to the wells. Finally, 25 µl of the 2× NADPH regeneration system was added. In order to initiate the detection reaction, 50 µl of the reconstituted luciferin detection reagent containing the esterase was added to the samples, positive and solvent control wells. This step was followed by 20 minutes incubation in the dark for signal stabilization. In the wells reserved for background luminescence, luciferase-free water was added. Measurements were performed on a Tecan infinite F200 PRO plate reader on two independent days (n = 2) at minimum.
(§1) Raw data obtained from Tecan infinite F200 PRO plate reader was processed by calculating total luminescence (% of untreated control) by applying the formula: raw data − (background luminescence) * 100/mean of negative control.
A one-way ANOVA followed by Dunnett’s multiple comparisons test was performed. […] A p-value of < 0.05 was used to indicate significance.

CYP2D6 [4] = target: CYP2D6 (Homo sapiens, UniProt P10635); assay: P450-Glo CYP2D6 inhibition assay (bioluminescence-based; pre-screen at 100 µM and IC50 determination); conditions: for classification of CYP2D6 inhibition (actives / weak actives / inactives): ranked by IC50, inactives from pre-screen at 100 µM
Method: Their CYP2D6 inhibitory potential was determined at a concentration of 100 µM in a final reaction volume of 50 µl. […] All compounds were dissolved in DMSO and the concentration thereof in the final reaction volume was 1%, according to the limitations indicated in the manufacturer’s protocol. […] To take into account the background luminescence, which may derive from a non-enzymatic conversion of ME-luciferin-EGE to luciferin, we included a ‘minus P450’ control that contained no CYP2D6 enzyme. In order to quantify CYP2D6 activity, we subtracted background values prior to calculating the percentage of total luminescence (% TL) obtained from the solvent control (set to 100%). Low % TL indicates low CYP2D6 activity.
In the three minus P450 control wells, 12.25 µl of the 4× reaction mixture was added. […] The plate was incubated for 10 minutes. The CYP2D6 enzyme reaction was initiated by the addition of 25 µl of 2× NADPH regeneration system (2.6 mM NADP^+, 6.6 mM glucose-6-phosphate, 6.6 mM MgCl2 and 0.8 U/ml glucose-6-phosphate dehydrogenase buffered in 0.1 mM sodium citrate at pH 5.5; Promega). After 45 minutes incubation, the enzyme reaction was stopped by the addition of 50 µl of the luciferin detection reagent, which contained also the esterase for the generation of the luminescence signal. The plate was incubated in the dark for 20 minutes in order to stabilize the signal measured by a Tecan infinite F200 PRO plate reader. […] The maximum allowed DMSO concentration in the final reaction mix was 1% according to the manufacturer’s protocol. The experiment was performed at room temperature and under prevention of excessive UV-light at minimum on two independent days (n = 2).
Concentration-dependent CYP2D6 inhibition assays were performed by preparing a 5-step dilution series of the 400 µM compound solutions. […] After this dilution step, 12.5 µl of each dilution was transferred to the assay plate. The assay was performed as described above. The DMSO concentration was kept constant for all concentrations with a maximum of 1%. The experiments were performed on three independent experimental days (n = 3).
as §1

[5] = IC50, P450-Glo CYP2D6 Inhibition Assay, recombinant human CYP2D6, 6 concentrations (compound 18: 4), n = 3

CYP2D6 (Homo sapiens, UniProt P10635), sequence (P10635 whole entry): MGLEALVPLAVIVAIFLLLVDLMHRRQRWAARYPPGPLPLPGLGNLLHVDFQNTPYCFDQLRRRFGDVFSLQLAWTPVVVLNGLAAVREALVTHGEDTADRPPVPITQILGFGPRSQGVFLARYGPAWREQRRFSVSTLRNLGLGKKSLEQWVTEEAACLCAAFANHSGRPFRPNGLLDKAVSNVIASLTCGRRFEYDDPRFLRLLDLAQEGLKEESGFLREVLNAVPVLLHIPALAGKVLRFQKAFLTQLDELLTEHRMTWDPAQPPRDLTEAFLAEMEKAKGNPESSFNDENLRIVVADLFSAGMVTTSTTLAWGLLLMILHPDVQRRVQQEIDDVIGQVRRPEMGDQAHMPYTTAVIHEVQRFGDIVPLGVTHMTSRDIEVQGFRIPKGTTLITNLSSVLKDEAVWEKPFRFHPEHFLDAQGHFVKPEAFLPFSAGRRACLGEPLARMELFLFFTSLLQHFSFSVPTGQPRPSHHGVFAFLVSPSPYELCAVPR

Row | SMILES | Classification of literature CYP2D6 inhibition (CYP2D6 [1]) | Inhibitory potency (IC50/Ki not specified) (CYP2D6 [2]) [nM] | P450-Glo Detection Reaction MEAN Diff. (inhibition of the detection reaction) [3] [%] | P450-Glo Detection Reaction MEAN (total luminescence) [3] [% TL] | p < 0.05 (significant inhibition of the P450-Glo detection reaction) [3] | IC50 (CYP2D6 [4]) [nM] | classification of CYP2D6 inhibition (actives / weak actives / inactives) (CYP2D6 [4]) | IC50 (CYP2D6 [2]) [nM] | IC50 (CYP2D6 [4]; [5]) [nM] | Inhibitory potency (CYP2D6 [2]) | IC50 at 45 min (CYP2D6 [4]; human, recombinant human CYP2D6 baculosomes, pH 7.4, probe ME-luciferin-EGE) [nM]
1 | COc1ccc2c(c1OC)C(=O)O[C@@H]2[C@H]1c2c(cc3c(c2OC)OCO3)CCN1C [Noscapine] | inactive | > 100000 |  |  |  |  |  |  |  |  | 
2 | COC(=O)C1=CO[C@@H](C)[C@H]2CN3CC[C@@]4(C(=O)Nc5ccccc54)[C@@H]3C[C@H]12 [Compound 23, Isomitraphylline] |  |  | 0.59 | 99.41 | No |  |  |  |  |  | 
3 | COC1=C[C@]23CCN(C)[C@H](Cc4ccc(OC)c(O)c42)C3=CC1=O [Compound 20, (+)-Salutaridine] |  |  | 2.94 | 97.06 | No | 24000 | weak actives |  |  |  | 
4 | COc1cc2c(cc1OC)[C@@H]1Cc3ccc(OC)c(OC)c3CN1CC2 [Tetrahydropalmatine] | active |  |  |  |  |  |  | 3040 ± 260 |  |  | 
5 | CC=C1C2CCN3CCC4(C(=C2C(=O)OC)Nc2ccccc24)C13 (single isomer, unassigned; (+)) [Compound 17, (+)-Condylocarpine] |  |  | 7.34 | 92.66 | Yes | 8160 | actives (those compounds were classified as active, which exhibited CYP2D6 IC50 values up to 10 µM) |  |  |  | 
6 | COC(=O)C1=CO[C@@H](C)[C@@H]2CN3CC[C@]4(C(=O)Nc5ccccc54)[C@@H]3C[C@H]12 [Compound 1, Pteropodine] |  |  | 7.50 | 92.50 | Yes | 33800 | weak actives |  |  |  | 
7 | O=C(O)c1ccccc1-n1ccc2c([nH]c3ccccc32)c1=O [Compound 5, Secofascaplysic acid] |  |  | 20.46 | 79.54 | Yes | 50400 | weak actives |  |  |  | 
8 | COc1ccc2c(c1OC)CN1CCc3cc4c(cc3C1C2C)OCO4 (stereo not drawn) [Compound 3, Thalictrivacine] |  |  | 8.23 | 91.77 | Yes |  | actives (those compounds were classified as active, which exhibited CYP2D6 IC50 values up to 10 µM) |  | 5140 |  | 
9 | COc1cc2c(cc1OC)C1Cc3cc(O)c(O)cc3CN1CC2 (stereo not drawn) [Compound 14, Spinosine] |  |  | 4.73 | 95.27 | Yes | 117 | actives (those compounds were classified as active, which exhibited CYP2D6 IC50 values up to 10 µM) |  |  |  | 
10 | COC(=O)C1=CO[C@@H](C)[C@H]2CN3CCc4c([nH]c5ccccc45)[C@@H]3C[C@H]12 [Ajmalicine] | active |  |  |  |  |  |  | 2.3 |  |  | 
11 | COc1ccc(CC2c3cc(OC)c(OC)cc3CCN2C)cc1OC (stereo not drawn) [Laudanosine] | unclear |  |  |  |  |  |  |  |  | stated as inhibitor | 
12 | O=C(NCCCCNCCCNC(=O)c1ccc(O)c(O)c1)c1ccc(O)c(O)c1 [Compound 4, Pistillarin] |  |  | 13.61 | 86.39 | Yes |  |  |  |  |  | 
13 | COC(=O)N1c2ccccc2C23C4CN5CCCC6(CCC12C(O)(C6)C4=O)C53 (single isomer, unassigned; (-)) [Compound 16, (-)-Kopsine] |  |  | 10.30 | 89.70 | Yes |  |  |  |  |  | 
14 | COC(=O)C1C(O)CCC2C[N+]3(C)CCc4c([nH]c5cccc(OC)c45)C3CC21 (stereo not drawn) [Compound 8, Venenatine methiodide] |  |  | 9.14 | 90.86 | Yes | 4600 | actives (those compounds were classified as active, which exhibited CYP2D6 IC50 values up to 10 µM) |  |  |  | 
15 | COc1ccc(/C=C\c2cc(OC)c(OC)cc2CCN(C)C)cc1 [Compound 15, Des-N,O-dimethylarmepavine] |  |  | 6.23 | 93.77 | Yes | 198 | actives (those compounds were classified as active, which exhibited CYP2D6 IC50 values up to 10 µM) |  |  |  | 
16 | COc1ccc(CC2c3cc(O)c(OC)cc3CCN2C)cc1O (single isomer, unassigned; (+)) [Compound 19, (+)-Reticuline] |  |  | 1.06 | 98.94 | No | 54.7 | actives (those compounds were classified as active, which exhibited CYP2D6 IC50 values up to 10 µM) |  |  |  | 
17 | COc1ccc(C[C@H]2c3cc(OC)c(OC)cc3CCN2C)cc1O [Compound 11, (+)-Laudanidine] |  |  | 5.86 | 94.14 | Yes | 380 | actives (those compounds were classified as active, which exhibited CYP2D6 IC50 values up to 10 µM) |  |  |  | 
19 | COc1cc2c(cc1O)-c1c(O)c(OC)cc3c1[C@H](C2)N(C)CC3 [Compound 18, Bracteoline] |  |  | 12.30 | 87.70 | Yes | 2110 | actives (those compounds were classified as active, which exhibited CYP2D6 IC50 values up to 10 µM) |  |  |  | 
20 | COC(=O)C1CC23C=CCN4CCC5(c6ccccc6NC15CC2)C43 (single isomer, unassigned; (-)) [Compound 10, (-)-Venalstonine] |  |  | 3.66 | 96.34 | No |  |  |  |  |  | 
21 | CC[C@]12C=CCN3CC[C@]4(C(=C(C(=O)OC)C1)Nc1ccccc14)[C@@H]32 [Compound 22, Tabersonine] |  |  |  | 104.20 | Yes |  | actives (those compounds were classified as active, which exhibited CYP2D6 IC50 values up to 10 µM) |  | 419 |  | 
22 | CCC1=CC2CN3CCc4c([nH]c5ccccc45)C(C(=O)OC)(C2)C13 (single isomer, unassigned; (+)) [Compound 7, (+)-Catharanthine] |  |  | 6.41 | 93.59 | Yes | 582 | actives (those compounds were classified as active, which exhibited CYP2D6 IC50 values up to 10 µM) |  |  |  | 
23 | COc1ccc(C[C@@H]2NCCc3cc(OC)c(O)cc32)cc1O [Compound 9, (S)-Norreticuline] |  |  | 7.64 | 92.36 | Yes |  | actives (those compounds were classified as active, which exhibited CYP2D6 IC50 values up to 10 µM) |  |  |  | 63.6

From publication PMC5556109, “A combinatorial approach for the discovery of cytochrome P450 2D6 inhibitors from nature” (Scientific Reports, 2017)
